The test system of experiment [1] is calf thymus DNA. The experiment is described as follows: Radiation-induced calf thymus DNA fragmentation assay. It is filed as biochemical. The settings on record: for Radioprotective properties of SDG and metabolites compared / High mol. wt. DNA form after radiation exposure / Radioprotection in calf thymus DNA fragmentation assay at low concentrations: 50 Gy; for Radioprotective properties of SDG and metabolites compared: 10 μM of each agent; for High mol. wt. DNA form after radiation exposure: 25, 50, 100 and 250 μM; for Radioprotection in calf thymus DNA fragmentation assay at low concentrations: 0.5-10 μM; for Radiation-induced generation of low mol. wt. fragments: at the concentration of 5 (unit not given); for Radiation induced generation of low mol. wt. fragments: at the lowest concentration tested. As to the method: (§1) Plasmid DNA (pBR322) or calf thymus DNA samples with or without varying concentrations of SDG (R,R), SDG (S,S) and SDG (commercial) were exposed to γ-radiation with a Mark 1 cesium (Cs-137) irradiator (J. L. Shepherd, San Fernando, Calif.) at a dose rate of 1.7 Gy/min in phosphate buffered saline, pH 7.4 (PBS).
The effect of test compounds on radiation-induced strand breaks in DNA was determined using calf thymus DNA (Sigma, St. Louis, Mo.). DNA (500 ng) in PBS (pH 7.4) was mixed with varying concentrations (25-250 μM) of SDG (R,R), SDG (S,S) and SDG (commercial) and irradiated at 50 Gy for 30 min. A second series of experiments were performed at varying concentrations ranging from 0.5-10 μM. Samples were mixed with loading dye and subjected to agarose (1%) gel electrophoresis in TAE buffer (pH, 8.3) at 100 V. The gel was stained with ethidium bromide (0.5 μg/ml) for 40 min, washed for 20 min and then visualized on a UV trans-illuminator (Bio-Rad, Hercules, Calif.). The captured gel images were scanned and the density of the calf thymus DNA fragments was determined by Gel-Pro image analyzer program (Media Cybernetics, Silver Spring, Md.). The density of the low mol. wt (<6,000 bps) and the high mol. wt (>6,000 bps) fragments of calf thymus DNA was expressed as % of the total density (low mol wt.+high mol. wt.).

A further experiment deals with Plasmid DNA (pBR322). The experiment is described as follows: Plasmid DNA relaxation assay after γ-radiation. The experiment is classed as biochemical. To be noted: for EC50: 25 Gy γ radiation, 25-250 μM tested, read-out: EC50 (effective concentration needed to prevent 50% of plasmid relaxation); for SC and OC forms of plasmid DNA: 25 Gy, 25, 50, 100 and 250 μM. On the procedure: as §1
The effect of test compounds on radiation-induced strand breaks and supercoil (SC) to open coil (OC) conversion was determined using plasmid DNA (pBR322) (Life Technologies, Carlsbad, Calif.). Plasmid DNA (500 ng) in PBS (pH 7.4) was mixed with various concentrations (25-250 μM) of SDG (R,R), SDG (S,S) and SDG (commercial) and irradiated at 25 Gy in PBS. At 30 min post radiation exposure, samples were mixed with loading dye and subjected to agarose (1%) gel electrophoresis in TAE buffer (pH, 8.3) at 100 V. The gel was stained with ethidium bromide (0.5 μg/ml) for 40 min, washed for 20 min and then visualized on a UV trans-illuminator (Bio-Rad, Hercules, Calif.). The captured gel images were scanned and the density of the open coiled (OC) and super coiled (SC) plasmid DNA bands determined by Gel-doc image analyzer program. The density of the SC and OC plasmid DNA was expressed as % of the total density (OC+SC).

A short description of experiment [2]: Hypochlorite scavenging with APF/HPF fluorescent probes (sodium hypochlorite). To be noted: 0.5 μM; similar to silibinin. As to the method:
The fluorescence of ROS probes APF and HPF in PBS was measured at excitation/emission at 490 nm/515 nm in presence of hypochlorite or after γ-radiation exposure. Data is expressed as relative fluorescence units (RFU).

Experiment [3] relates to calf thymus DNA. The experiment is described as follows: Hypochlorite-induced damage to calf thymus DNA. To be noted: 0.5 mM hypochlorite; test agents 1.0 μM. It is filed as biochemical. On the procedure: Calf thymus or plasmid DNA was incubated with hypochlorite for 2 hrs at 37° C. DNA samples were subjected to agarose (1%) gel electrophoresis and analyzed.
For a further experiment, the system named is human epithelial cells. The experiment is described as follows: BaP-induced DNA adduct formation. The settings on record: given alone or in combination. It is filed as cell-based. An excerpt: Similarly, SDG prevents genotoxic stress in human epithelial cells exposed to BaP. Exposure of cells to a potent carcinogen such as BaP, induces genotoxic stress as indicated by increased levels of p53 protein (FIG. 25). […] SDG also prevents oxidative DNA damages in human epithelial cells exposed to BaP. Exposure of cells to a potent carcinogen such as BaP, induces oxidative DNA damage as indicated by increased levels of gamma-H2AX, a marker for double-stranded DNA breaks (FIG. 26). […] Furthermore, SDG prevents DNA adduct formation in human epithelial cells exposed to BaP. Exposure of cells to a potent carcinogen such as BaP, induces the formation of DNA adducts (FIG. 27). DNA adducts are pieces of DNA covalently linked to a carcinogen and is directly linked to the development of malignancy. The DNA adduct levels is decreased by the presence of SDG or its metabolites ED and EL given alone or in combination.

Take `COc1cc(CC(CO)C(CO)Cc2ccc(O)c(OC)c2)ccc1O` (centres unmarked) [SECO, 2,3-bis (3-methoxy-4-hydroxybenzyl) butane-1,4-diol]: the “Radioprotective properties of SDG and metabolites compared” value in the experiment on calf thymus DNA [1] was “equipotent”.
For the compound `COc1cc(C[C@@H](CO[C@@H]2O[C@H](CO)[C@@H](O)[C@H](O)[C@H]2O)[C@H](CO[C@@H]2O[C@H](CO)[C@@H](O)[C@H](O)[C@H]2O)Cc2ccc(O)c(OC)c2)ccc1O` [SDG (commercial), Secoisolariciresinol Diglucoside], in the experiment with Plasmid DNA (pBR322), the EC50 was found to be 98.4 µM. Moreover, the “ClO^− scavenging potency” value in experiment [2] is “comparable potency”. Further, the “High mol. wt. DNA form after radiation exposure” value (“High mol. wt. DNA form” below) in the experiment with calf thymus DNA [1] is “radioprotective properties”.
`O=c1c(O)c(-c2ccc(O)c(O)c2)oc2cc(O)cc(O)c12` [quercetin]: the “Hypochlorite-induced damage to genomic DNA” value with calf thymus DNA [3] is on record as “comparable”.
On to `O=C1OC[C@H](Cc2cccc(O)c2)[C@H]1Cc1cccc(O)c1` [EL, enterolactone], for which the “Radioprotective properties of SDG and metabolites compared” value with calf thymus DNA [1] is recorded as “equipotent”. Further, the DNA adduct levels result with human epithelial cells is listed as “decreased”.
As for `COc1cc(C[C@@H](CO[C@@H]2O[C@H](CO)[C@@H](O)[C@H](O)[C@H]2O)[C@H](CO[C@@H]2O[C@H](CO)[C@@H](O)[C@H](O)[C@H]2O)Cc2ccc(O)c(OC)c2)ccc1O` [SDG (R,R), secoisolariciresinol diglucoside], in the experiment with Plasmid DNA (pBR322), the EC50 was found to be 128 µM; the “SC and OC forms of plasmid DNA” value was “prevented the radiation-induced damage to plasmid DNA in a concentration-dependent manner”. The “ClO^− scavenging potency” value in experiment [2] was “comparable potency”. Moreover, in the experiment on calf thymus DNA [1], the “Radioprotection in calf thymus DNA fragmentation assay at low concentrations” value is on record as “strong radioprotection characteristics even at low concentrations”, the “High mol. wt. DNA form” value was “radioprotective properties”, the “Radiation-induced generation of low mol. wt. fragments” value was “completely prevented” and the “Radiation induced generation of low mol. wt. fragments” value was “completely prevented”.
Regarding `OC[C@H](Cc1cccc(O)c1)[C@H](CO)Cc1cccc(O)c1` [ED, enterodiol], the “Radioprotective properties of SDG and metabolites compared” value with calf thymus DNA [1] was “equipotent”. Moreover, the DNA adduct levels result in the experiment with human epithelial cells is listed as “decreased”.
`COc1cc(C[C@H](CO[C@@H]2O[C@H](CO)[C@@H](O)[C@H](O)[C@H]2O)[C@@H](CO[C@@H]2O[C@H](CO)[C@@H](O)[C@H](O)[C@H]2O)Cc2ccc(O)c(OC)c2)ccc1O` [SDG (S,S), secoisolariciresinol diglucoside]: in the experiment with Plasmid DNA (pBR322), the EC50 is 142 µM; the “SC and OC forms of plasmid DNA” value was “the proportion of the SC form increased and the density of OC form decreased significantly”. The “ClO^− scavenging potency” value in experiment [2] was “comparable potency”. Also, in the experiment with calf thymus DNA [1], the “Radioprotection in calf thymus DNA fragmentation assay at low concentrations” value is on record as “strong radioprotection characteristics even at low concentrations”, the “High mol. wt. DNA form” value is “the proportion of the high mol. wt. DNA form increased significantly”, the “Radiation-induced generation of low mol. wt. fragments” value is “completely prevented” and the “Radiation induced generation of low mol. wt. fragments” value is “completely prevented”.
